Test results taken from PubChem BioAssay AID248 (DTP/NCI, 2004).
Values joined by “and” are separate entries in the source; they are usually repeats but may differ in a detail not shown here. Identical values can stand only once. Inconclusive results and toxic doses are left out. No stated cut-off is given here; in the data, active means T/C of 150% or more; inactive means T/C below 125%.

System: L1210 leukemia ip in BDF1 mice, survival T/C
Test: NCI In Vivo Anticancer Drug Screen. Data for tumor model L1210 Leukemia (intraperitoneal) in B6D2F1 (BDF1) mice
Details: endpoint: mean survival time, higher = longer survival
How it was run: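 Read-out is survival time, reported as the treated-group measurement over the vehicle-control measurement.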

[1] = dose: 100.0 mg/kg/injection, schedule: Q01DX009 (ip), vehicle: saline with Tween-80
[2] = dose: 100.0 mg/kg/injection, schedule: Q01DX001 (ip), vehicle: saline
[3] = dose: 200.0 mg/kg/injection, schedule: Q01DX001 (ip), vehicle: saline
[4] = dose: 400.0 mg/kg/injection, schedule: Q01DX001 (ip), vehicle: saline

Measured: T/C

O=C(Nc1ccc(F)cc1)Oc1ccc2ccccc2c1
inactive: dose: 100.0 mg/kg/injection, schedule: Q01DX001 (ip), vehicle: carboxymethylcellulose (CMC) 103 % of control | dose: 100.0 mg/kg/injection, schedule: Q01DX009 (ip), vehicle: carboxymethylcellulose (CMC) 95 % of control and 97 % of control | dose: 100.0 mg/kg/injection, schedule: Q04DX002 (ip), vehicle: carboxymethylcellulose (CMC) 92 % of control and 98 % of control | dose: 200.0 mg/kg/injection, schedule: Q01DX001 (ip), vehicle: carboxymethylcellulose (CMC) 94 % of control | dose: 200.0 mg/kg/injection, schedule: Q01DX009 (ip), vehicle: carboxymethylcellulose (CMC) 102 % of control and 90 % of control | dose: 200.0 mg/kg/injection, schedule: Q04DX002 (ip), vehicle: carboxymethylcellulose (CMC) 92 % of control and 102 % of control | dose: 400.0 mg/kg/injection, schedule: Q01DX001 (ip), vehicle: carboxymethylcellulose (CMC) 97 % of control | dose: 400.0 mg/kg/injection, schedule: Q01DX009 (ip), vehicle: carboxymethylcellulose (CMC) 94 % of control and 90 % of control | dose: 400.0 mg/kg/injection, schedule: Q04DX002 (ip), vehicle: carboxymethylcellulose (CMC) 93 % of control

O=c1[nH]c2cc(Cl)ccc2c(CCl)c1Cl
inactive: dose: 25.0 mg/kg/injection, schedule: Q01DX009 (ip), vehicle: saline with Tween-80 92 % of control | dose: 50.0 mg/kg/injection, schedule: Q01DX009 (ip), vehicle: saline with Tween-80 94 % of control | [1] 89 % of control | dose: 100.0 mg/kg/injection, schedule: Q04DX003 (ip), vehicle: acetone 100 % of control

O=S(=O)(Sc1ccc(Cl)cc1)c1ccc(Cl)cc1
inactive: dose: 100.0 mg/kg/injection, schedule: Q04DX002 (ip), vehicle: gum acacia 101 % of control | dose: 200.0 mg/kg/injection, schedule: Q04DX002 (ip), vehicle: gum acacia 107 % of control and 91 % of control | dose: 400.0 mg/kg/injection, schedule: Q04DX002 (ip), vehicle: gum acacia 104 % of control

CCN(CC)c1ccc(N=C2C=C(C(=O)Nc3ccc(S(C)(=O)=O)cc3)C(=O)c3ccccc32)c(C)c1
inactive: [2] 92 % of control | [3] 96 % of control | [4] 96 % of control

Cc1c(Cl)cccc1NC(=O)OCCCc1ccccc1
inactive: dose: 100.0 mg/kg/injection, schedule: Q01DX001 (ip), vehicle: saline with Tween-80 93 % of control | [1] 101 % of control and 104 % of control | dose: 100.0 mg/kg/injection, schedule: Q04DX002 (ip), vehicle: saline with Tween-80 96 % of control and 108 % of control | dose: 100.0 mg/kg/injection, schedule: Q04DX003 (ip), vehicle: saline with Tween-80 102 % of control | dose: 200.0 mg/kg/injection, schedule: Q01DX001 (ip), vehicle: saline with Tween-80 93 % of control | dose: 200.0 mg/kg/injection, schedule: Q01DX009 (ip), vehicle: saline with Tween-80 93 % of control and 96 % of control | dose: 200.0 mg/kg/injection, schedule: Q04DX002 (ip), vehicle: saline with Tween-80 108 % of control and 121 % of control | dose: 200.0 mg/kg/injection, schedule: Q04DX003 (ip), vehicle: saline with Tween-80 89 % of control | dose: 400.0 mg/kg/injection, schedule: Q01DX001 (ip), vehicle: saline with Tween-80 90 % of control | dose: 400.0 mg/kg/injection, schedule: Q01DX009 (ip), vehicle: saline with Tween-80 98 % of control and 90 % of control | dose: 400.0 mg/kg/injection, schedule: Q04DX002 (ip), vehicle: saline with Tween-80 97 % of control and 101 % of control | dose: 400.0 mg/kg/injection, schedule: Q04DX003 (ip), vehicle: saline with Tween-80 91 % of control

CCOC(=O)c1cnc(SC)nc1Nc1ccccc1[N+](=O)[O-]
inactive: dose: 25.0 mg/kg/injection, schedule: Q01DX001 (ip), vehicle: Klucel (hydroxypropylcellulose) (HPC) 96 % of control | dose: 50.0 mg/kg/injection, schedule: Q01DX001 (ip), vehicle: Klucel (hydroxypropylcellulose) (HPC) 96 % of control | dose: 100.0 mg/kg/injection, schedule: Q01DX001 (ip), vehicle: Klucel (hydroxypropylcellulose) (HPC) 100 % of control | dose: 100.0 mg/kg/injection, schedule: Q01DX009 (ip), vehicle: Klucel (hydroxypropylcellulose) (HPC) 94 % of control | dose: 200.0 mg/kg/injection, schedule: Q01DX001 (ip), vehicle: Klucel (hydroxypropylcellulose) (HPC) 88 % of control | dose: 200.0 mg/kg/injection, schedule: Q01DX009 (ip), vehicle: Klucel (hydroxypropylcellulose) (HPC) 94 % of control | dose: 400.0 mg/kg/injection, schedule: Q01DX001 (ip), vehicle: Klucel (hydroxypropylcellulose) (HPC) 88 % of control | dose: 400.0 mg/kg/injection, schedule: Q01DX009 (ip), vehicle: Klucel (hydroxypropylcellulose) (HPC) 89 % of control

CCCCCCCCCCCNC=O
inactive: [2] 103 % of control | [3] 101 % of control | [4] 101 % of control

CC1=CCC2(C)CCC(C(C)C)C2(O)CC1 (centres undefined)
inactive: dose: 100.0 mg/kg/injection, schedule: Q01DX009 (ip), vehicle: saline 91 % of control | dose: 200.0 mg/kg/injection, schedule: Q01DX009 (ip), vehicle: saline 93 % of control
